Measurements as given in patent US7666587B2, “Method of screening test substances for treating or preventing a disease mediated by plasma cells” (priority 2002, dated 2010).
Residues, ends and D or L forms follow the SMILES beside them. *: point of attachment. Cbz = O=C(OCc1ccccc1)*

Key:
[1] = tested on: XBP-1; test: Metabolic pulse labelling and immunoprecipitation of endogenous XBP-1 proteins; assay type: cell-based, mouse
Description: Mouse embryonic fibroblasts and ES cells lacking IRE1 activity (IRE1α−/− or IRE1α, IRE1β−/−) and PERK−/−fibroblasts were cultured as previously described (Harding et al., “Regulated Translation Initiation Controls Stress-Induced Gene Expression in Mammalian Cells,” Mol. Cell 6:1099-1108 (2000); and Urano et al., “Coupling of Stress in the Endoplasmic Reticulum to Activation of JNK Protein Kinases by Transmembrane Protein Kinase IRE1,” Science 287:664-666 (2000), which are hereby incorporated by reference in their entirety). Cells were treated with tunicamycin (2.5 μg/ml, Calbiochem), thapsigargin (100 nM, Sigma), dithiothreitol (2 mM, Sigma) or the proteasome inhibitor MG132 (25 μM, Calbiochem) as indicated. To prepare B-cell blasts, cells were teased from crushed adult mouse spleen and cultured in the presence of 25 μg/ml E. coli lipopolysaccharide.
Newly synthesized proteins were labeled in vivo with ^35S-methionine and ^35S-cysteine (500 μCi/ml, Translabel, ICN Biochemicals). After removal of the labeling media cells were washed and incubated in complete media for cold-chase. […] Incorporation of radiolabel was quantified by phosphoimager analysis. In calculating the relative synthesis rates of 54 kDa XBP-1 and 33 kDa XBP-1 the relative incorporation of label was corrected for differences in the content of methionine (7:6) and cysteine (4:3) predicted for the two proteins. […]

[2] = tested on: hsp-4::gfp; test: hsp-4::gfp transcriptional reporter induction in C. elegans (UPR); assay type: in vivo; details: gut and hypodermis; plates containing 5 μg/ml tunicamycin
Source text: A 1.1 kilobase (Kb) fragment of C. elegans genomic DNA immediately 5′ of the predicted initiation ATG of hsp-4 was amplified by PCR and ligated in-frame with GFP in the plasmid pPD95.75 (gift of Andy Fire, Carnegie Institute of Washington). The hsp-4::gfp(zcIs4) V strain was generated by co-injecting the hsp-4::gfp clone with the lin-15 rescuing plasmid, pSK1 (Clark et al., “The Caenorhabditis elegans Locus Lin-15, a Negative Regulator of a Tyrosine Kinase Signaling Pathway, Encodes Two Different Proteins,” Genetics 137:987-997 (1994), which is hereby incorporated by reference in its entirety), into lin-15(n765ts) animals and then integrating the extrachromosomal array with ultraviolet/trimethylpsoralen (UV/TMP) treatment. The F2 progeny of ethylmethane sulphonate (EMS)-treated hsp-4::gfp(zcIs4)V animals were screened for mutants with high levels of GFP expression to identify mutations that constitutively induce the UPR. Several mutations were recovered, including upr-1(zc6)X, which induced a high level of GFP expression in the posterior gut. To isolate mutations that blocked hsp-4::gfp induction, the F2 progeny of EMS-treated hsp-4::gfp(zcIs4) V; upr-1(zc6)X animals were screened for mutants with a reduced GFP signal. The mutations were mapped using standard methods. […]

[3] = tested on: XBP-1; test: Immunoblot of FLAG-tagged XBP-1 in transfected HEK 293T cells; assay type: cell-based, human; details: HEK 293T cells transfected with XBP-1^up
Description: (§1) Mouse embryonic fibroblasts and ES cells lacking IRE1 activity (IRE1α−/− or IRE1α, IRE1β−/−) and PERK−/−fibroblasts were cultured as previously described (Harding et al., “Regulated Translation Initiation Controls Stress-Induced Gene Expression in Mammalian Cells,” Mol. Cell 6:1099-1108 (2000); and Urano et al., “Coupling of Stress in the Endoplasmic Reticulum to Activation of JNK Protein Kinases by Transmembrane Protein Kinase IRE1,” Science 287:664-666 (2000), which are hereby incorporated by reference in their entirety). Cells were treated with tunicamycin (2.5 μg/ml, Calbiochem), thapsigargin (100 nM, Sigma), dithiothreitol (2 mM, Sigma) or the proteasome inhibitor MG132 (25 μM, Calbiochem) as indicated. […]
(§2) XBP-1 proteins in whole cell extracts were detected by immunoblot of 9% PAGE-SDS using a rabbit polyclonal serum directed to residues 97-267 common to both 54 kDa and 33 kDa XBP-1 proteins (sc-7160, Santa Cruz Biotechnology). XBP-1 proteins in transfected cells were detected by a monoclonal antibody to the FLAG epitope tag (Kodak-IBI). CREB and CHOP were detected as described previously (Harding et al., “Regulated Translation Initiation Controls Stress-Induced Gene Expression in Mammalian Cells,” Mol. Cell 6:1099-1108 (2000), which is hereby incorporated by reference in its entirety).

[4] = tested on: XBP-1; test: XBP-1 immunoblot during in vitro differentiation of B-cells to plasma cells; assay type: cell-based; details: mouse spleen cells, 25 μg/ml E. coli lipopolysaccharide
Description: as §1, §2

CC(C)C[C@@H](C=O)NC(=O)[C@H](CC(C)C)NC(=O)[C@H](CC(C)C)NC(=O)OCc1ccccc1 [proteasome inhibitor, MG132] (Cbz-Leu-Leu-Leu-aldehyde)
levels of 33 kDa XBP-1 protein ([1]; mouse fibroblasts, MG132 25 μM): increased further

tunicamycin
accumulation of endogenous 54 kDa XBP-1 ([1]; pulse-labeled wildtype cells, tunicamycin 2.5 μg/ml): accumulated to high levels
hsp-4::gfp expression [2]: strongly induced
expression of FLAG-tagged 54 kDa XBP-1 protein [3]: expressed high levels of FLAG-tagged 54 kDa protein

bacterial lipopolysaccharide
induction of 54 kDa XBP-1 protein [4]: induced
